The experiment deals with glaucoma mice (high intraocular pressure, C57BL/6J). As to the kind of experiment: Glaucoma mouse model induced by intraocular injection of polystyrene microparticles (RGC and axon damage). Particulars: 2 μl once a week at 0.2 μg/ml intravitreal; observed after 8 weeks; compared to IgG injected mice / controls. It is filed as in vivo, C57BL/6J mice. On the procedure: Glaucoma mouse model. Two glaucoma mice models were used in the following experiments. In the first model, high intraocular pressure was induced in adult C57BL/6J mice by injecting polystyrene microparticles. First, mice were anesthetized by intraperitoneal injection of a mixture of ketamine (120 mg/kg) and xylazine (12 mg/kg). Then, a small puncture in the center of the right cornea of the mouse was incised with a 30 G needle (BD, USA). Then, 3 to […] of polystyrene particles of 15 μm diameter (Invitrogen, Oregon, USA) were injected at a 5×10^6/ml concentration into the right anterior chamber of the eye by a glass micro-injector. Left eyes were used as controls, by injecting […] of PBS into the left anterior chamber in a similar manner
Treatment with immune checkpoint inhibitors. […]
Pathologic assessments. After mice were sacrificed, optic nerve and retinal patches were taken to assess optic nerve damage. The optic nerve was fixed overnight with Karnovsky solution. Transverse sections of the optic nerve were obtained 2 mm after the eyeball and observed by electron microscopy (EM410, Philips). For retinal patches the eyeball was fixed with 4% paraformaldehyde overnight. Retinal patches and frozen sections were taken. Retinal ganglion cells (RGCs) were labeled with beta 3 tubulin (Invitrogen) and recorded using a confocal laser microscope (Olympus FV1000). […]

As to `Nc1ncnc2c1ncn2[C@@H]1O[C@H](CO)[C@@H](O)[C@H]1O` [adenosine], the “RGCs loss (beta 3 tubulin staining)” value is “decreased RGCs loss”.

Source of the values: US20220002411A1, “METHODS FOR TREATING IMMUNE RELATED OCULAR DISORDERS” (LEGEND MEDICAL-RIMONCI VISION TECHNOLOGY INCUBATION LIMITED, priority 2019, published 2022).
